Experiment in all cases: growth of human tumour cells (NCI), 48 h
For experiment [1], the system named is NCI-H226.
Experiment [2] has as its system KM-20L2.
The subject of experiment [3] is SK-MEL-28.
The test system of experiment [4] is SK-MEL-5.
The test system of experiment [5] is MOLT-4.
Experiment [6] relates to RXF 393.
Experiment [7] deals with EKVX.
The test system of experiment [8] is HOP-62.
Experiment [9] has as its system SN12C.
In experiment [10] the test system is K562.
Experiment [11] has as its system A498.
Experiment [12] concerns UO-31.
The subject of experiment [13] is SF-268.
The subject of experiment [14] is UACC-62.
The subject of experiment [15] is HOP-92.
The subject of experiment [16] is HCT-15.

The values below come from ChEMBL document CHEMBL1201862, “PubChem BioAssay data set” (2004).

Molecules are shown by their SMILES.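 Assay format: 96-well plates, 48-hour exposure. GI50 is the concentration that inhibits growth by half.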 Activity calls are given as the source filed them. No stated cut-off is given here; in the data, active = GI50 up to about 1.1 µM and inactive = higher.

In the case of `CC(=O)Nc1ccc(/C=c2\sc3nnc(/C=C/c4ccccc4)n3c2=O)cc1`, the GI50 in experiment [1], in [2], in experiment [3], in [4], in experiment [5] and in [6] was > 50 µM (inactive) each time. The GI50 in experiment [7], in [8], in experiment [9], in experiment [10], in [11] and in experiment [12] was > 50 µM (inactive) each time. Further, the GI50 in experiment [13] and in [14] was > 50 µM (inactive) each time.

Turning to `CC(NC(=O)c1ccccc1)C(=O)N(Cc1ccccc1)Cc1ccccc1` (centres undefined), the GI50 was 23.4 µM (inactive) in experiment [1]; 26.2 µM (inactive) in experiment [2]; 25.7 µM (inactive) in [3]; 22.5 µM (inactive) in [4]; 14.1 µM (inactive) in experiment [5]; 26.5 µM (inactive) in [6]. The GI50 in experiment [8] was 25.1 µM (inactive); in experiment [15], 23.6 µM (inactive); in experiment [9], 37.4 µM (inactive); in [10], 15.3 µM (inactive); in [11], 25.6 µM (inactive); in experiment [12], 27.5 µM (inactive). The values for the GI50 in experiment [16], in experiment [13] and in [14] were 32.1 µM, 35.4 µM (inactive) and 16.4 µM (inactive), respectively.

`Cc1cccc(C(C)(C)C)c1NC(=O)CCl`: the GI50 in experiment [1], in experiment [2], in [3], in experiment [4], in experiment [5] and in experiment [6] was > 100 µM (inactive) throughout. Further, the GI50 in experiment [7], in [8], in experiment [9], in experiment [10], in experiment [11] and in [12] was > 100 µM (inactive) throughout. Also, the GI50 in experiment [13] and in [14] was > 100 µM (inactive) throughout.

`CC1(C)C(=O)CCC(=O)C(C)(C)C2=CC=C(O2)C(C)(C)C(=O)CCC(=O)C(C)(C)C2=CC=C1O2`: the GI50 in [1], in [2], in [3], in [5], in [6] and in [7] was > 100 µM (inactive) in each case. Further, the GI50 was > 100 µM (inactive) in experiment [8]; 76.9 µM (inactive) in [15]; > 100 µM (inactive) in [10]; > 100 µM (inactive) in experiment [11]; above 100 µM in [16]; > 100 µM (inactive) in experiment [13].

`O=C1OC(=O)c2c1nc1ccccc1c2-c1ccccc1`: the GI50 in experiment [1], in experiment [2], in experiment [4], in experiment [5], in experiment [6] and in [8] was > 100 µM (inactive) in each case. For the same compound, the GI50 was > 100 µM (inactive) in experiment [15]; > 100 µM (inactive) in [9]; > 100 µM (inactive) in experiment [10]; > 100 µM (inactive) in experiment [11]; > 100 µM (inactive) in [12]; above 100 µM in [16]. Further, the GI50 in experiment [13] and in experiment [14] was > 100 µM (inactive) each time.

Consider `NC(=O)NCc1c(C(N)=O)ncn1Cc1ccccc1`, for which the GI50 in [2], in experiment [3], in [4], in experiment [5], in experiment [6] and in experiment [7] was > 100 µM (inactive) each time. Further, the GI50 was > 100 µM (inactive) in experiment [8]; > 100 µM (inactive) in experiment [15]; > 100 µM (inactive) in experiment [9]; > 100 µM (inactive) in [10]; > 100 µM (inactive) in experiment [11]; above 100 µM in experiment [16]. Further, the GI50 in [14] is > 100 µM (inactive).

`COC(=O)c1cccc2c3ccccc3c3ccccc3c12`: the GI50 was > 100 µM (inactive) in [1]; 41.8 µM (inactive) in experiment [2]; 41.5 µM (inactive) in [3]; 30.1 µM (inactive) in experiment [4]; 24.5 µM (inactive) in experiment [5]; 24 µM (inactive) in experiment [6]. Further, the GI50 was > 100 µM (inactive) in experiment [7]; > 100 µM (inactive) in experiment [8]; 45.4 µM (inactive) in experiment [9]; 29 µM (inactive) in experiment [10]; 20.2 µM (inactive) in experiment [11]; 39.9 µM (inactive) in experiment [12]. For the same compound, the GI50 in [16] is 35.2 µM; in experiment [13], 37.2 µM (inactive); in experiment [14], 24.3 µM (inactive).

With `Cc1ccc(/C=C/C(=O)C(C)C)cc1`, the GI50 in [2] is 14.2 µM (inactive); in [3], > 100 µM (inactive); in experiment [4], 50.9 µM (inactive); in experiment [5] it was 30.2 µM (inactive); in experiment [6], 39.8 µM (inactive); in experiment [7], > 100 µM (inactive). Moreover, the GI50 in experiment [15] was 41.8 µM (inactive); in experiment [10], 31.3 µM (inactive); in experiment [11] it was > 100 µM (inactive); in experiment [12], 54.1 µM (inactive); in experiment [13] it was > 100 µM (inactive); in experiment [14], 37.2 µM (inactive).

Turning to `Cc1cc(Br)cc(C)c1NC(=O)C(=O)CC(=O)c1sc(-n2nc(-c3ccccc3)cc2-c2ccccc2)nc1C`, the GI50 in [1], in [2], in experiment [3], in [5], in experiment [6] and in [7] was > 100 µM (inactive) in each case. Moreover, the GI50 in [8], in experiment [15], in experiment [9], in experiment [10], in experiment [11] and in [12] was > 100 µM (inactive) in each case. In addition, the values for the GI50 in experiment [16], in experiment [13] and in [14] were above 100 µM, > 100 µM (inactive) and > 100 µM (inactive), respectively.

`COC(=O)CC1NC(=O)C1C1(C)OCCO1` (centres undefined): the GI50 in experiment [1], in [2], in experiment [3], in [4], in experiment [6] and in [7] was > 100 µM (inactive) each time. For the same compound, the GI50 in experiment [8] was > 100 µM (inactive); in experiment [9], > 100 µM (inactive); in experiment [11], > 100 µM (inactive); in experiment [12], > 100 µM (inactive); in experiment [16], above 100 µM; in experiment [13], > 100 µM (inactive). Also, the GI50 in experiment [14] is > 100 µM (inactive).

As for `CS(=O)(=O)OC1CCC2(C#N)CCC1C2=O` (centres undefined), the GI50 in experiment [1] was > 100 µM (inactive); in experiment [2], 54.5 µM (inactive); in experiment [3], > 100 µM (inactive); in [4] it was > 100 µM (inactive); in experiment [5] it was > 100 µM (inactive); in experiment [6], > 100 µM (inactive). The GI50 in experiment [7], in experiment [8], in [9], in experiment [10], in [11] and in experiment [12] was > 100 µM (inactive) in each case. The GI50 in experiment [16] is 12.1 µM; in [13] it was > 100 µM (inactive); in [14] it was > 100 µM (inactive).

For `CCOC(=O)Cc1c(Cc2[nH]c(C(=O)OCc3ccccc3)c(CC(=O)OCC)c2CC(=O)OCC)[nH]c(C(=O)OCc2ccccc2)c1CC(=O)OCC`, the GI50 in [2], in experiment [3], in [4], in experiment [5], in [8] and in experiment [15] was > 100 µM (inactive) throughout. In addition, the GI50 was > 100 µM (inactive) in experiment [9]; > 100 µM (inactive) in experiment [10]; > 100 µM (inactive) in experiment [11]; 67.8 µM (inactive) in [12]; above 100 µM in experiment [16]; > 100 µM (inactive) in experiment [13]. Besides, in [14], the GI50 is > 100 µM (inactive).

With `Cc1cccc(NC(=O)C(=O)C(C2OC(=O)c3ccccc32)[N+](=O)[O-])c1C` (centres undefined), the GI50 was 12.6 µM (inactive) in experiment [1]; 18.4 µM (inactive) in [2]; 12.6 µM (inactive) in experiment [3]; 6.53 µM (inactive) in experiment [4]; 2.99 µM (inactive) in experiment [5]; 6.87 µM (inactive) in experiment [6]. Also, the GI50 in experiment [7] is 17.6 µM (inactive); in experiment [8] it was 17.2 µM (inactive); in [9] it was 6.34 µM (inactive); in [10], 4.42 µM (inactive); in experiment [11] it was 15.7 µM (inactive); in experiment [12], 9.53 µM (inactive). The GI50 in experiment [16] was 5.21 µM; in experiment [13], 7.52 µM (inactive); in experiment [14], 10.9 µM (inactive).

Regarding `Cc1ccc(/C=C/C(=O)c2ccc(Cl)c(Cl)c2)cc1`, the GI50 was > 100 µM (inactive) in [1]; > 100 µM (inactive) in experiment [2]; > 100 µM (inactive) in experiment [3]; > 100 µM (inactive) in experiment [4]; > 100 µM (inactive) in [5]; 84.1 µM (inactive) in experiment [6]. For the same compound, the GI50 in [7], in experiment [8], in experiment [9], in experiment [10], in experiment [11] and in experiment [12] was > 100 µM (inactive) in each case. For the same compound, the GI50 in [13] and in [14] was > 100 µM (inactive) each time.
